Measured values from patent US11478488B2, “Co-crystals of tramadol and coxibs” (ESTEVE PHARMACEUTICALS, S.A., priority 2009, dated 2022).
Like-named read-outs stand apart in the source and are kept apart here.

Legend:
[1] = tested on: incision-induced mechanical allodynia in the incised rat hind paw; assay: Mechanical allodynia (von Frey filaments) in paw incision postoperative pain model; assay type: in vivo, Wistar rats; details: ip
Description: (§1) Male, Wistar rats (120-160 g, Harlan, Italy) were housed in a climate-controlled room for at least 5 days prior to testing.
(§2) The dosing volume was 10 ml/kg. The antihyperalgesic or antiallodynic response of the animal was subsequently evaluated 60 min after drug administration.
(§3) Rats were anaesthetized with 3% isofluorane for veterinary use, employing an Ohmeda vaporizer and an anaesthesia chamber. Anaesthesia was kept during the surgical operation by a tube which directs the isoflurane vapours to the animal's snout. Once the rats were anaesthetised, they were laid down in a prone position and their right hindpaws were cleaned out with alcohol. Then, a 1 cm longitudinal incision was made with a number 23 scalpel, through skin and fascia of the plantar aspect of the paw, starting 0.5 cm from the proximal edge of the heel and extending toward the toes. Therefore, both superficial (skin) and deep (muscle) tissues and nerves were injured. Finally, the skin of the paw was stitched with a suturing stitch with breaded silk (3.0) and the wound was cleaned out with povidone.
(§4) The drugs were tested 4 hours after the surgery (plantar incision); 60 minutes after the administration of the product, two behavioural endpoints were evaluated: thermal hypersensitivity or hyperalgesia, and mechanical hypersensitivity or allodynia.
Mechanical allodynia was tested using von Frey filaments. Animals were placed in methacrylate cylinders on an elevated surface, with metallic mesh floor perforated in order to apply the filaments. After an acclimation period of about 30 minutes within the cylinders, both hindpaws were stimulated (the injured and the non-injured paw, serving the latter as control), starting with the lowest force filament (0.4 g) and reaching up to a 15 g filament. The animal's response to pain was manifested by the withdrawal of the paw as a consequence of the painful stimulus caused by a filament. The pressure (force in grams) threshold eliciting the withdrawal of the paw was recorded.
Where it is established that Zmix<Zadd for a specific fixed-ratio, then that composition has a synergistic anti-hyperalgesic effect. Both ED50 mix and ED50 add values are random variables. ED50 mix is determined from the dose-response curve for a specific fixed-ratio of the components; ED50 add is calculated from the ED50 values for the individual drugs. Zmix is then compared to Zadd via a Student's t-test.

[2] = tested on: incision-induced thermal hyperalgesia in the incised rat hind paw; assay: Thermal hyperalgesia (plantar test, Hargreaves) in paw incision postoperative pain model; assay type: in vivo, Wistar rats; details: for ED50: read-out: ED50 thermal hyperalgesia (after sigmoidal adjustment); for Efficacy on thermal hyperalgesia: rat paw incision, intraperitoneal dose response, FIG. 8
Description: as §1, §2, §3, §4
Animals were placed in the methacrylate cages of said apparatus, having a crystal floor. The acclimation period within the cages was about 10 minutes. The thermal stimulus came from a lamp moving below the crystal floor and which was applied to both paws, with a minimum interval of 1 minute between both stimulations in order to avoid learning behaviours. The rat is able to withdraw the paw freely when it feels discomfort (pain) produced by the heat coming from the lamp; then it is switched off and the latency time to the withdrawal response is recorded in seconds. In order to avoid hurting the animal's paw, the lamp was automatically switched off after 32 seconds.

[3] = tested on: motor behaviour of monoarthritic rats (carrageenan-induced gait changes); assay: Pain-induced gait adaptation (CBMS) in carrageenan-induced acute monoarthritic model; details: intraperitoneal 4.5 h after carrageenan, measured 30 min after administration; co-crystal 20 mg/kg, single drugs at corresponding dose
Description: Movement-evoked pain was evaluated by a computerized behavioral monitoring system (CBMS).
The rat carrageenan model utilizes inflammation-associated pain following injection of the knee joint (monoarthritic model). […] The CBMS was used to assess gait related changes 5 hours after carrageenan injection and 30 min after drugs administration. […] Mechanical allodynia was measured with von Frey filaments 15 minutes after CBMS gait analysis.
Food and water were available ad libitum up to test time.
The dosing volume was 2 ml/kg. The drug response of the animal was subsequently evaluated 30 and 45 min after drug administration (for CBMS and von Frey respectively).
Joint inflammation was induced by carrageenan (Sigma Chemical, St. Louis, Mo.) injected percutaneously using a 30-gauge needle through the infrapatellar ligament into the right knee joint cavity (300 μg, 40 μl) with the animal under brief isoflurane (IsoFlo®, Abbott-Esteve, Barcelona, Spain) anaesthesia (3%).
Detailed analysis of gait was performed on walking rats using the CBMS method. Briefly, light from a fluorescent tube is sent through a glass plate. Light rays are completely reflected internally. As soon as anything, e.g. a rat's paw, is in contact with the glass surface, light is reflected downwards. It results in a sharp image of a bright paw print. The whole run is recorded via a camera placed under the glass plate. […]

[4] = intraperitoneal single dose, 4 h after surgery, evaluated 60 min after administration, read-out: ED50 mechanical allodynia (after sigmoidal adjustment)
[5] = intraperitoneal, separate ED50 of single drugs for isobologram analysis, read-out: ED50 on mechanical allodynia as used in the isobologram (FIG. 7)

COc1cccc(C2(O)CCCCC2CN(C)C)c1 (racemic) [Tramadol, 2-(dimethylaminomethyl)-1-(3-methoxyphenyl)cyclohexanol]
ED50 [1, 4]: 5.41 mg/kg | ED50 [1, 5]: 5.28 mg/kg | ED50 ([2]; Rattus norvegicus, ip): 8.3 mg/kg | Efficacy on thermal hyperalgesia [2]: full efficacy | Effect on carrageenan-induced gait changes (CBMS) [3]: inhibited

Cc1ccc(-c2cc(C(F)(F)F)nn2-c2ccc(S(N)(=O)=O)cc2)cc1 [Celecoxib, 4-[5-(4-methylphenyl)-3-(trifluoromethyl)-pyrazol-1-yl]benzenesulfonamide]
ED50 [1, 4]: 3.03 mg/kg | ED50 [1, 5]: 3.01 mg/kg | Emax ([2]; Rattus norvegicus, ip, 1 h, read-out: Emax thermal hyperalgesia, rat paw incision, intraperitoneal, 60 min after administration): 45% | ED50 ([2]; Rattus norvegicus, ip): 2.35 mg/kg | Efficacy on thermal hyperalgesia [2]: only a partial response | Effect on carrageenan-induced gait changes (CBMS) [3]: inhibited
